{"source": "patent US8822407B2", "about": "“Preparation of conjugates comprising adenine derivatives and allergenic proteins and their use for specific immunotherapy of allengenic diseases” (Universita' Degli Studi di Firenze, priority 2010, dated 2014)", "molecules": {"B1": {"name": "ovalbumin (protein, UniProt P01012 2-386, looked up)", "Ovalbumin": "GSIGAASMEFCFDVFKELKVHHANENIFYCPIAIMSALAMVYLGAKDSTRTQINKVVRFDKLPGFGDSIEAQCGTSVNVHSSLRDILNQITKPNDVYSFSLASRLYAEERYPILPEYLQCVKELYRGGLEPINFQTAADQARELINSWVESQTNGIIRNVLQPSSVDSQTAMVLVNAIVFKGLWEKAFKDEDTQAMPFRVTEQESKPVQMMYQIGLFRVASMASEKMKILELPFASGTMSMLVLLPDEVSGLEQLESIINFEKLTEWTSSNVMEERKIKVYLPRMKMEEKYNLTSVLMAMGITDVFSSSANLSGISSAESLKISQAVHAAHAEINEAGREVVGSAEAGVDAASVSEEFRADHPFLFCIKHIATNAVLFFGRCVSP", "notes": "ovalbumin (OVA grade V)"}}, "key": {"purified B cells": {"tested_on": "purified B cells", "experiment": "B cell activation (tritiated thymidine incorporation)", "assay_type": "cell-based, human", "procedure": "Circulating mononuclear cells (MNC) are isolated by Ficoll-Hypaque density gradient from buffy coats of healthy donors (Servizio Immunotrasfusionale e terapie cellulari, Azienda Ospedaliero Universitaria Pediatrica A. Meyer, Firenze). 200×10^6 MNC are then separated using the commercial CD19 isolation kit (Miltenyi) by the addition of 400 μl iron microbead-bound anti-CD19 monoclonal antibody followed by magnetic separation on LS column. 20×10^6 B cells are isolated by positive selection and are extensively washed by the use of calcium- and magnesium-free PBS and cultured in triplicates at the concentration of 1×10^6/ml/well in complete medium plus 10% foetal calf serum in 96-U plates. […] Plates are incubated in humidified atmosphere at 37° C. for 72 hrs and at the end 0.5 μCi tritiated thymidine is added to each well for further 16 hrs. The incorporated radioactivity is measured as already described in step (f) of Example 4."}, "TLR9": {"target": "T1, TLR9 (Homo sapiens, UniProt Q9NR96)", "T1 construct": "expressed in transfected cells; host or cells: HEK293 (transient Nucleofection, Amaxa)", "T1 sequence (Q9NR96 26-1032)": "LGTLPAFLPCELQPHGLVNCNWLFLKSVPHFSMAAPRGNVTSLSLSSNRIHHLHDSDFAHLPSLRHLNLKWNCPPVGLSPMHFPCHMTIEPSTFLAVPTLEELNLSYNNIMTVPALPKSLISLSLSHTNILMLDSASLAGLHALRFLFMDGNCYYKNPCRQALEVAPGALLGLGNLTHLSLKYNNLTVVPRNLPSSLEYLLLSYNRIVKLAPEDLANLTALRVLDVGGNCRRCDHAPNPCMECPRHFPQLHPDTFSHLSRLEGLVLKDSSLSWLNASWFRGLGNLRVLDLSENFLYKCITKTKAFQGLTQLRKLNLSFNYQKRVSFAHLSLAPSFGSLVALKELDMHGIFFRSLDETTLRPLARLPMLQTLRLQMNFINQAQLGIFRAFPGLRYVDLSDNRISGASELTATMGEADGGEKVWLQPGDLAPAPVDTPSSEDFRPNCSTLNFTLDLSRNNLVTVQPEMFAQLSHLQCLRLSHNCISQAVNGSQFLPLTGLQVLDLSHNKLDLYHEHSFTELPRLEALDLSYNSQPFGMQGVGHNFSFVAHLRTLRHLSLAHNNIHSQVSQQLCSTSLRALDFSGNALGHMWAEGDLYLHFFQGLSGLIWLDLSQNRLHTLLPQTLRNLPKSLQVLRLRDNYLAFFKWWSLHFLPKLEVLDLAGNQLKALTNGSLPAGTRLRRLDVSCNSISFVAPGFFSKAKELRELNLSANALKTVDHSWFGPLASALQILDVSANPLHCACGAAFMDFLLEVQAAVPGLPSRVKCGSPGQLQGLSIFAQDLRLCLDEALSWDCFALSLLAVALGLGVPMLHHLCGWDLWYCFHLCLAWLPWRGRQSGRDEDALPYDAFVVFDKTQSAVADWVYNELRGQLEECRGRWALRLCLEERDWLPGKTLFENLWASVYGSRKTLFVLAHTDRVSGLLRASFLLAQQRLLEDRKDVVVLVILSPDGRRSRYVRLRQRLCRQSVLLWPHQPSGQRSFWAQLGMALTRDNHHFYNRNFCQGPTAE", "experiment": "TLR9-transfected HEK293 cells, NF-kB luciferase reporter", "assay_type": "cell-based", "conditions": "CpG-ODN 2006 1.3 μM; data not shown", "procedure": "(§1) HEK293 cells are detached by trypsin from the plastic surface of the culture bottle, extensively washed with calcium and magnesium-free PBS, counted and adjusted at the concentration 1×10^6 cells/tube in polypropylene V-bottomed tubes. After the final wash, the cells are pelleted and 100 μl transfection buffer (Amaxa) is added together with […], TLR7, TLR8 or TLR9-encoding and ELAM-1 promoter NF-kB luciferase reporter plasmids. The mixture thus obtained is transferred in special cuvettes and transient transfection is obtained in a special apparatus which is able to directly introduce genetic material into the nucleus (Nucleofection®, Amaxa GmbH). The cells are then recovered and cultured at 1×10^5/ml in 48-flat bottomed plates in E-MEM medium plus 5% foetal calf serum for 18 hrs. […] Finally the luciferase activity is measured in the cellular lysates by a commercial kit (Promega)."}, "TLR3": {"target": "T2, TLR3 (Homo sapiens, UniProt O15455)", "T2 construct": "expressed in transfected cells; host or cells: HEK293 (transient Nucleofection, Amaxa)", "T2 sequence (O15455 24-904)": "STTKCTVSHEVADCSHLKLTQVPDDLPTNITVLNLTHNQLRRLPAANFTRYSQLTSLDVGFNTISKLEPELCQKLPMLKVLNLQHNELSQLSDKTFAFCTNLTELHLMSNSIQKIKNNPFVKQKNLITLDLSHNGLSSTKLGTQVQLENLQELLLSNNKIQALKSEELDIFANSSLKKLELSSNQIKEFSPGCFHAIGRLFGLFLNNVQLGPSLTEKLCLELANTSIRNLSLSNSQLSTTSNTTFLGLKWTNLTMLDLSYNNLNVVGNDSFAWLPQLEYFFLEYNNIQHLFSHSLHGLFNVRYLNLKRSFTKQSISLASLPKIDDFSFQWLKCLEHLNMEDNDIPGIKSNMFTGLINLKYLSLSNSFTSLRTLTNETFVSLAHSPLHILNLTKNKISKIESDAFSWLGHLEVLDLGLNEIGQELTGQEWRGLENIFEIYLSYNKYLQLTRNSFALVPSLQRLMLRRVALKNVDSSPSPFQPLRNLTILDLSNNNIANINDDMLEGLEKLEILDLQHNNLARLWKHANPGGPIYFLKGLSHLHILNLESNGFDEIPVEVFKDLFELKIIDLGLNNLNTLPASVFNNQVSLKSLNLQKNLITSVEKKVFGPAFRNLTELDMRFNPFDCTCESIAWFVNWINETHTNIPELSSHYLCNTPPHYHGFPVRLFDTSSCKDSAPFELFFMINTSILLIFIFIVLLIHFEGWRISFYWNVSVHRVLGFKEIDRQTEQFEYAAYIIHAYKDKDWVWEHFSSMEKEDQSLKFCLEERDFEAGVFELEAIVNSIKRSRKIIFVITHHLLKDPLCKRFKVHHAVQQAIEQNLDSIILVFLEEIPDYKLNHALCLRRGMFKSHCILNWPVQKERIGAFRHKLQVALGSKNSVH", "experiment": "TLR3-transfected HEK293 cells, NF-kB luciferase reporter", "assay_type": "cell-based", "conditions": "Poly I:C 50 μg/ml; data not shown", "procedure": "as §1"}, "purified CD14+ cells": {"tested_on": "purified CD14+ cells", "experiment": "Cytokine production by purified CD14+ cells (ELISA of supernatants, 36 hrs)", "assay_type": "cell-based, human", "procedure": "Circulating mononuclear cells (MNC) are isolated by density gradient (Ficoll-Hypaque) using buffy coats from 14 normal donors (Servizio Immunotrasfusionale e terapie cellulari, Azienda Ospedaliera Universitaria A. Meyer, Firenze). 200×10^6 MNC are separated by the use of a commercial kit (CD14 isolation kit, Miltenyi) by the addition of 400 μl anti-CD14 monoclonal antibody bound to iron beads followed by isolation on magnetic columns (LS column). 50×10^6 monocytes are recovered by positive selection and are extensively washed with calcium and magnesium-free sterile PBS and then seeded in complete medium plus 10% foetal calf serum in 24 flat bottomed plates at the concentration of 1×10^6/ml. […] The plates are incubated for 36 hrs at 37° C. in 5% CO2 humidified atmosphere and the supernatants are collected after centrifugation at 1200 rpm, aliquoted and then stored at −20° C. up to the assay. […]\nFor the determination of cytokines and chemokines of the innate immunity, commercial ELISAs have been used: IL-12p40 (Cytoscreen, Biosource Int, Camarillo, Calif.), IFN-alfa (Cytoscreen), TNF-alfa (Cytoscreen), IL-10 (Pharmingen), IL-6 and CXCL10 (R&D System). 100 μl/well of single supernatants are incubated in flat bottomed plates as specified by the productors and the amounts of the single cytokines are expressed as pg/ml on the basis of a reference curve by using recombinant cytokines."}, "BALB/C and C57BL/6 mice": {"tested_on": "BALB/C and C57BL/6 mice", "experiment": "Modification of antibody response in sensitized mice (serum IgE)", "assay_type": "in vivo", "conditions": "mice sensitized i.p. with 10 μg in alum", "procedure": "Ten BALB/C and ten C57BL/6 6-8 wk-old female mice (Charles River) have been intraperitoneally sensitized at day 0 and d 7 with 10 μg OVA (5 animals per strain) or OVA-conj (5 animals per strain) in the presence of alum. At d 14 and d 18 animals are stimulated intratracheally with 10 μg OVA and after 24 hrs unspecific bronchial hyperreactivity is measured administering first an aerosolized PBS solution to obtain the standard value and then an aerosolized solution containing increasing concentrations of methacolin for 3 min (6.25-12.5-25-50 mg/ml). The pletismograph in which the animal is inserted is able to monitor the values of airflow resistance.\nSerum levels of total and OVA-specific IgE have been determined at d 14 and d 18 (before the intratracheal allergic stimulation) in sensitized animals by the use of commercial kits."}, "[1]": {"conditions": "Table A, Donor #1, LPS, dose not printed in table (100 ng/ml elsewhere in the source)"}, "[2]": {"conditions": "Table A, Donor #2, LPS, dose not printed in table (100 ng/ml elsewhere in the source)"}, "[3]": {"conditions": "Table E, Donor #1, dose 0.1 μg/ml"}, "[4]": {"conditions": "Table E, Donor #2, dose 0.1 μg/ml"}}}
{"molecule": "CpG-ODN 2006 [reference compound]", "values": [{"measurement": "Stimulation index (mean ± SE)", "setting": "purified B cells; B cell proliferation, concentration 10 μg/ml", "value": "90.3 ± 7.5"}, {"measurement": "proliferation of purified B lymphocytes (in words)", "setting": "purified B cells; thymidine incorporation", "value": "high levels of incorporation of radioactive thymidine"}, {"measurement": "NF-κB expression in TLR9-transfected HEK293 cells", "setting": "TLR9", "value": "able to induce NF-κB expression"}]}
{"molecule": "Poly I:C", "values": [{"measurement": "NF-κB expression in TLR3-expressing HEK293 cells", "setting": "TLR3", "value": "activates TLR3-expressing cells"}]}
{"molecule": "lipopolysaccharide [LPS, reference compound]", "values": [{"measurement": "IL-6 production", "setting": "purified CD14+ cells; [1]", "value": 12905, "unit": "pg/mL"}, {"measurement": "IL-10 production", "setting": "purified CD14+ cells; [1]", "value": 8140, "unit": "pg/mL"}, {"measurement": "IL-12p40 production", "setting": "purified CD14+ cells; [1]", "value": 2725, "unit": "pg/mL"}, {"measurement": "TNF-alfa production", "setting": "purified CD14+ cells; [1]", "value": 5331, "unit": "pg/mL"}, {"measurement": "IL-6 production", "setting": "purified CD14+ cells; [2]", "value": 3125, "unit": "pg/mL"}, {"measurement": "IL-10 production", "setting": "purified CD14+ cells; [2]", "value": 1155, "unit": "pg/mL"}, {"measurement": "IL-12p40 production", "setting": "purified CD14+ cells; [2]", "value": 6311, "unit": "pg/mL"}, {"measurement": "TNF-alfa production", "setting": "purified CD14+ cells; [2]", "value": 4619, "unit": "pg/mL"}, {"measurement": "IL-6 production (mean ± SE)", "setting": "purified CD14+ cells; Table B, dose 1 μg/ml", "value": "17.5 ± 4.9", "unit": "ng/mL"}, {"measurement": "IL-10 production (mean ± SE)", "setting": "purified CD14+ cells; Table B, dose 1 μg/ml", "value": "7.9 ± 1.9", "unit": "ng/mL"}, {"measurement": "IL-12p40 production (mean ± SE)", "setting": "purified CD14+ cells; Table B, dose 1 μg/ml", "value": "3.8 ± 1.7", "unit": "ng/mL"}, {"measurement": "TNF-alfa production (mean ± SE)", "setting": "purified CD14+ cells; Table B, dose 1 μg/ml", "value": "7.6 ± 2.7", "unit": "ng/mL"}, {"measurement": "IL-6 production", "setting": "purified CD14+ cells; [3]", "value": 27235, "unit": "pg/mL"}, {"measurement": "IL-10 production", "setting": "purified CD14+ cells; [3]", "value": 530, "unit": "pg/mL"}, {"measurement": "IL-12p40 production", "setting": "purified CD14+ cells; [3]", "value": 5627, "unit": "pg/mL"}, {"measurement": "TNF-alfa production", "setting": "purified CD14+ cells; [3]", "value": 3136, "unit": "pg/mL"}, {"measurement": "IL-6 production", "setting": "purified CD14+ cells; [4]", "value": 39499, "unit": "pg/mL"}, {"measurement": "IL-10 production", "setting": "purified CD14+ cells; [4]", "value": 3000, "unit": "pg/mL"}, {"measurement": "IL-12p40 production", "setting": "purified CD14+ cells; [4]", "value": 10522, "unit": "pg/mL"}, {"measurement": "TNF-alfa production", "setting": "purified CD14+ cells; [4]", "value": 14061, "unit": "pg/mL"}, {"measurement": "cytokine production from purified CD14+ cells (in words)", "setting": "purified CD14+ cells; text to Tables A and B", "value": "relevant amounts of modulatory (IL-12) and inflammatory (TNF-alfa and IL-6) cytokines"}]}
{"molecule": "B1", "values": [{"measurement": "Total IgE (mean ± SE)", "setting": "BALB/C and C57BL/6 mice; d14 pre-challenge", "value": "966 ± 268", "unit": "pg/mL"}, {"measurement": "Total IgE (mean ± SE)", "setting": "BALB/C and C57BL/6 mice; d18 post-challenge", "value": "680 ± 234", "unit": "pg/mL"}]}
